Test results from BindingDB's records for patent US20240059728 (Galecto Biotech, 2024).

How the values were obtained:
Galectin-1 = Galectin-1 (Homo sapiens, UniProt P09382); experiment: Evaluation of Kd Values
Description: (§1) The affinity of Example 1-14 for galectins were determined by a fluorescence anisotropy assay where the compound was used as an inhibitor of the interaction between galectin and a fluorescein tagged saccharide probe as described S rme, P., Kahl-Knutsson, B., Huflejt, M., Nilsson, U. J., and Leffler H. (2004) Fluorescence polarization as an analytical tool to evaluate galectin-ligand interactions. Anal. Biochem. 334: 36-47, (Sarme et al., 2004) and Monovalent interactions of Galectin-1 By Salomonsson, Emma; Larumbe, Amaia; Tejler, Johan; Tullberg, Erik; Rydberg, Hanna; Sundin, Anders; Khabut, Areej; Frejd, Torbjorn; Lobsanov, Yuri D.; Rini, James M.; et al, From Biochemistry (2010), 49(44), 9518-9532, (Salomonsson et al., 2010).

Galectin-3 = Galectin-3 (Homo sapiens, UniProt P17931); experiment: Evaluation of Kd Values
Description: as §1

Galectin-1, sequence (P09382 whole entry): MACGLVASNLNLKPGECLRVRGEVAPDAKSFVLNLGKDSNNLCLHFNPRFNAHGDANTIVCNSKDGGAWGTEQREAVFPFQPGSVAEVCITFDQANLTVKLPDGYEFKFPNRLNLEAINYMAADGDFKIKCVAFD
Galectin-3, sequence (P17931 whole entry): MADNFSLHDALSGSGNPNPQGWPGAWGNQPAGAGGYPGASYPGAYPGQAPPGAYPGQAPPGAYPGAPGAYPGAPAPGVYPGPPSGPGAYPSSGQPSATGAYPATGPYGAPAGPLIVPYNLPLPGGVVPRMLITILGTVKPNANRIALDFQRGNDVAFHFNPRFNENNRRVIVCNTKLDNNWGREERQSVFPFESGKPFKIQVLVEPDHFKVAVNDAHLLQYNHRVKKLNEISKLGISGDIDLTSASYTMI

Compound | Kd (Galectin-1) [nM] | Kd (Galectin-3) [nM]
OCC1O[C@@H](S[C@@H]2O[C@H](CO)C(O)C(n3cc(-c4cc(F)c(F)c(F)c4)cn3)[C@H]2O)C(O)[C@@H](n2cc(-c3cc(F)c(F)c(F)c3)cn2)[C@H]1O (some centres undefined) [US20240059728, Example 5] | 890 | 6
OCC1O[C@@H](S[C@@H]2O[C@H](CO)C(O)C(n3cc(-c4cccc(F)c4)cn3)[C@H]2O)C(O)[C@@H](n2cc(-c3cccc(F)c3)cn2)[C@H]1O (some centres undefined) [US20240059728, Example 4] | 780 | < 10
